Experiments:
[1] = target: T1, Bifunctional 3'-5' exonuclease/ATP-dependent helicase WRN [2-1432] (UniProt Q14191); experiment: WRN activity Format A
T1 construct: 2-1432
Experimental: Full length WRN protein (aa 2-1432) (production described separately) was used for the biochemical activity assays. The 39-mer ssDNA “C6.18” ([…]) was purchased from IDT and used as a substrate. Quantification of ATP hydrolysis was evaluated using the ADP-Glo assay kit (Promega, Madison, WI). An enzyme titration time-course was performed to determine the optimal assay conditions. […] To evaluate the inhibitory effects of the compounds, 11-point 3-fold serial dilutions were prepared in DMSO.50nL of each concentration in duplicate was preincubated for 30 minutes in a 384-well microplate (Greiner #784075) with 5μL of 0.5nM WRN in assay buffer. The reaction was initiated by adding 5μL of 200nM C6.18 DNA with 20μM ATP and was allowed to proceed for 30 minutes at room temperature. The reaction was stopped with 10μL ADP-Glo reagent for 1 hour to remove unreacted ATP. Lastly, 20μL ATP detection reagent was added and incubated for 1 hour to generate the luminescence signal. Control wells included “high controls” with no inhibition (DMSO, no compound) and “low controls” with maximum inhibition (no WRN). Luminescence was recorded on a PHERAstar (BMG Labtech, Ortenberg, Germany). Data was fit using the “Smart Fit” method within the Genedata Screener Software (Basel, Switzerland) to obtain IC50 values using four-parameter fits. Reported IC50s are the geometric means of at least two independent trials.

[2] = target: T1, Bifunctional 3'-5' exonuclease/ATP-dependent helicase WRN [2-1432]; experiment: WRN activity Format B
Experimental: The 39-mer ssDNA “C6.18” ([…]) was purchased from IDT and used as a substrate. Quantification of ATP hydrolysis was evaluated using the ADP-Glo assay kit (Promega, Madison, WI). An enzyme titration time-course was performed to determine the optimal assay conditions. […] Data was fit using the “Smart Fit” method within the Genedata Screener Software (Basel, Switzerland) to obtain IC50 values using four-parameter fits. Reported IC50s are the geometric means of at least two independent trials.

T1 sequence (Q14191 2-1432): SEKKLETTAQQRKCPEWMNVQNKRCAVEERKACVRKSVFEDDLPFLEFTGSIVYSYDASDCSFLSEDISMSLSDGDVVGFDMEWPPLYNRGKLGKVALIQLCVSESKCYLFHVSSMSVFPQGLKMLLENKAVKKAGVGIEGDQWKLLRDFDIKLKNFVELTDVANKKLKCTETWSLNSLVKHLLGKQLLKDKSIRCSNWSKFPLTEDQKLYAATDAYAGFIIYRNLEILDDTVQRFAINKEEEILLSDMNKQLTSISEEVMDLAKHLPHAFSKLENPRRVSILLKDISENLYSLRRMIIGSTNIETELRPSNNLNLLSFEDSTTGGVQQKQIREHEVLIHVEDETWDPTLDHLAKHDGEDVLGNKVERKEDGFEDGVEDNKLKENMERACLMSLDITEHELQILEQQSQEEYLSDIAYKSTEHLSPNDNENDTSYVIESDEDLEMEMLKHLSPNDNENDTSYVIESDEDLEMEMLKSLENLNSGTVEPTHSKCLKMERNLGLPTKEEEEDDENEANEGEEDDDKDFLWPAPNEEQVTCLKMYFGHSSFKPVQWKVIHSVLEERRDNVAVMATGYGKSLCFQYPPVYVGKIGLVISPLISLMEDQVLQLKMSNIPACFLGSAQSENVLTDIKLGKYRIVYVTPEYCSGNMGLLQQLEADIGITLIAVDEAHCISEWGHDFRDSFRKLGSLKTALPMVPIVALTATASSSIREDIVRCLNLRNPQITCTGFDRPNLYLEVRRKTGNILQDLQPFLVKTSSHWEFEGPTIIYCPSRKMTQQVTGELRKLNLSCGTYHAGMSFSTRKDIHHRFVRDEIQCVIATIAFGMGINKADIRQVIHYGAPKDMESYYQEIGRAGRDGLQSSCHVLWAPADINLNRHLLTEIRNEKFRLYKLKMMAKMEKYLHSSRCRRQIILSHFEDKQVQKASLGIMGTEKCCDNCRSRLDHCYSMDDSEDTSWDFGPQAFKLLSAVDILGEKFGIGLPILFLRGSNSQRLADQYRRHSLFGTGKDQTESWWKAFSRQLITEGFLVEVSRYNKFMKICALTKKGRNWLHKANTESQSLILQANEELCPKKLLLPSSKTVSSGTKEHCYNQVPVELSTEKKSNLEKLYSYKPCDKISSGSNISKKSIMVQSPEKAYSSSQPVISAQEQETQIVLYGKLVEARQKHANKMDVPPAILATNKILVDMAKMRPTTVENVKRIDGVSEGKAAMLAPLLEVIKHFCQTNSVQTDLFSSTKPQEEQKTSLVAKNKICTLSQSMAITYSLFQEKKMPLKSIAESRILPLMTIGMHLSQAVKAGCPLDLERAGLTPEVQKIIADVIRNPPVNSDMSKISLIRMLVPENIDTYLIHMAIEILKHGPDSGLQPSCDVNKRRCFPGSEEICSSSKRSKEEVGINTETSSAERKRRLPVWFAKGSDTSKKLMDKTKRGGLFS

## C=CC(=O)N1CCOc2nn(-c3ccc(C4CCC4)cc3O)c3c2C(C1)N(C(=O)C1=CC2=NN=C(Br)C2=CC1)CC3 (stereo not drawn) [US20250346600, Compound 40]
[1]
  IC50: < 1.5 nM
[2]
  IC50: in the range around 35 nM

## C=CC(=O)N1CCc2nn(-c3ccc(C4CC4)cc3)c3c2C(C1)N(C(=O)C1=CN=C2N=C(C(F)(F)F)N=C2C1)CC3 (stereo not drawn) [US20250346600, Compound 124]
[1]
  IC50: in the range around 35 nM
